From article PMC4999056 (European Journal of Medicinal Chemistry, 2016)
Where two headings read alike, the source gives them in different places.

Key:
[1] = in vitro
[2] = system: DENV (serotype 2); assay: microbe, parasite or virus in culture; type: cell-based, Dengue virus serotype 2; conditions: for EC50: read-out: Dengue EC50
[3] = system: YFV; assay: microbe, parasite or virus in culture; type: cell-based, yellow fever virus; conditions: for EC50: read-out: Yellow fever EC50
[4] = in vitro; conditions: chlorocebus aethiops, Yellow fever CC50

Structure (SMILES): Cc1ccc(NC(=O)c2nccnc2C(=O)Nc2ccc(F)cc2)c(-c2cc(C)n[nH]2)c1 [6a, N^2-(4-fluorophenyl)-N^3-(4-methyl-2-(3-methyl-1H-pyrazol-5-yl)phenyl) pyrazine-2,3 dicarboxamide]
- CC50 ([1]; chlorocebus aethiops): > 116 µM
- Dengue SI [2]: >4
- fold reduction in inhibitory properties against dengue virus [2]: 10 fold
- EC50 ([2]; Dengue virus, Vero B): 26.5 µM

Structure (SMILES): Cc1ccc(NC(=O)c2nccnc2C(=O)Nc2ccc(C)cc2-c2cc(C)n[nH]2)cc1 [6b, N^2-(4-methyl-2-(3-methyl-1H-pyrazol-5-yl)phenyl)-N^3-(p-tolyl)pyrazine-2,3-dicarboxamide]
- CC50 ([1]; chlorocebus aethiops): > 117 µM
- CC50 ([1]; green monkey): > 116 µM
- Dengue SI [2]: >235
- fold increase of DENV inhibitory properties [2]: 50 fold
- EC50 ([2]; Dengue virus, Vero B): 0.5 µM

Structure (SMILES): Cc1ccc(NC(=O)c2nccnc2C(=O)Nc2ccc(F)cc2)c(-c2cccs2)c1 [6c, N^2-(4-fluorophenyl)-N^3-(4-methyl-2-(thiophen-2-yl)phenyl)pyrazine-2,3-dicarboxamide]
- CC50 ([1]; chlorocebus aethiops): > 116 µM
- EC50 ([3]; Yellow fever virus, Vero B): 23 µM
- Dengue SI [2]: >25
- EC50 ([2]; Dengue virus, Vero B): 4.6 µM
- CC50 [4]: > 116 µM

Structure (SMILES): Cc1ccc(NC(=O)c2nccnc2C(=O)Nc2ccc(C)cc2-c2cccs2)cc1 [6d, N^2-(4-methyl-2-(thiophen-2-yl)phenyl)-N^3-(p-tolyl)pyrazine-2,3-dicarboxamide]
- CC50 ([1]; chlorocebus aethiops): > 117 µM
- CC50 ([1]; green monkey): > 116 µM
- Dengue SI [2]: >235
- fold increase in DENV activity for the methyl congener [2]: 10 fold
- EC50 ([2]; Dengue virus, Vero B): 0.5 µM

Structure (SMILES): Cc1ccc(NC(=O)c2nccnc2C(=O)Nc2ccc(F)cc2)c(-c2ccc(C)s2)c1 [6e, N^2-(4-fluorophenyl)-N^3-(4-methyl-2-(5-methylthiophen-2-yl)phenyl)pyrazine-2,3-dicarboxamide]
- CC50 ([1]; chlorocebus aethiops): > 112 µM
- Dengue EC50 [2]: complete loss of DENV inhibitory activity
- Dengue SI [2]: 1
- EC50 ([2]; Dengue virus, Vero B): > 112 µM

Structure (SMILES): Cc1ccc(NC(=O)c2nccnc2C(=O)Nc2ccc(C)cc2-c2ccc(C)s2)cc1 [6f, N^2-(4-methyl-2-(5-methylthiophen-2-yl)phenyl)-N^3-(p-tolyl)pyrazine-2,3-dicarboxamide]
- CC50 ([1]; chlorocebus aethiops): > 113 µM
- Dengue EC50 [2]: complete loss of DENV inhibitory activity
- Dengue SI [2]: 1
- EC50 ([2]; Dengue virus, Vero B): > 113 µM

Structure (SMILES): Cc1ccc(NC(=O)c2nccnc2C(=O)Nc2ccc(F)cc2)c(-c2ccsc2)c1 [6g, N^2-(4-fluorophenyl)-N^3-(4-methyl-2-(thiophen-3-yl)phenyl)pyrazine-2,3-dicarboxamide]
- CC50 ([1]; chlorocebus aethiops): > 116 µM
- Yellow fever SI [3]: >11
- EC50 ([3]; Yellow fever virus, Vero B): 10.6 µM
- Dengue SI [2]: >55
- EC50 ([2]; Dengue virus, Vero B): 2.1 µM
- CC50 [4]: > 116 µM

Structure (SMILES): Cc1ccc(NC(=O)c2nccnc2C(=O)Nc2ccc(C)cc2-c2ccsc2)cc1 [6h, N^2-(4-methyl-2-(thiophen-3-yl)phenyl)-N^3-(p-tolyl)pyrazine-2,3-dicarboxamide]
- CC50 at 168 h ([1]; chlorocebus aethiops): 26 µM
- Yellow fever SI [3]: 1
- EC50 ([3]; Yellow fever virus, Vero B): > 116 µM
- Dengue SI [2]: >29
- EC50 ([2]; Dengue virus, Vero B): 0.5 to 3.4 µM
- EC50 [2]: < 0.9 µM
- CC50 [4]: > 116 µM

Structure (SMILES): O=C(NCc1ccccc1-c1ccsc1)c1nccnc1C(=O)Nc1ccc(F)cc1 [6i, N^2-(4-fluorophenyl)-N^3-(2-(thiophen-3-yl)benzyl)pyrazine-2,3-dicarboxamide]
- CC50 at 168 h ([1]; chlorocebus aethiops): 52 µM
- Yellow fever SI [3]: 19
- EC50 ([3]; Yellow fever virus, Vero B): 3.9 µM
- Dengue SI [2]: 2
- EC50 ([2]; Dengue virus, Vero B): 24 µM
- CC50 at 168 h [4]: 76 µM

Structure (SMILES): Cc1ccc(NC(=O)c2nccnc2C(=O)NCc2ccccc2-c2ccsc2)cc1 [6j, N^2-(2-(thiophen-3-yl)benzyl)-N^3-(p-tolyl)pyrazine-2,3-dicarboxamide]
- CC50 at 168 h ([1]; chlorocebus aethiops): 48 µM
- Yellow fever SI [3]: 14
- EC50 [3]: 5.4 µM
- Dengue SI [2]: 1
- EC50 ([2]; Dengue virus, Vero B): > 48 µM
- CC50 at 168 h [4]: 75 µM

Structure (SMILES): O=C(NCc1ccc(-c2ccsc2)cc1)c1nccnc1C(=O)Nc1ccc(F)cc1 [6k, N^2-(4-fluorophenyl)-N^3-(4-(thiophen-3-yl)benzyl)pyrazine-2,3-dicarboxamide]
- CC50 ([1]; chlorocebus aethiops): > 116 µM
- Yellow fever SI [3]: >6
- EC50 ([3]; Yellow fever virus, Vero B): 18.5 µM
- Dengue SI [2]: 1
- EC50 ([2]; Dengue virus, Vero B): > 116 µM
- CC50 [4]: > 116 µM

Structure (SMILES): Cc1ccc(NC(=O)c2nccnc2C(=O)NCc2ccc(-c3ccsc3)cc2)cc1 [6l, N^2-(4-(thiophen-3-yl)benzyl)-N^3-(p-tolyl)pyrazine-2,3-dicarboxamide]
- CC50 ([1]; chlorocebus aethiops): > 117 µM
- Yellow fever SI [3]: >5
- EC50 ([3]; Yellow fever virus, Vero B): 21.5 µM
- Dengue SI [2]: >8
- fold increase in DENV activity for the methyl congener [2]: 10 fold
- EC50 ([2]; Dengue virus, Vero B): 14 µM
- CC50 [4]: > 117 µM

Structure (SMILES): Cc1cc(-c2ccccc2NC(=O)c2nccnc2C(=O)Nc2ccc(F)cc2)[nH]n1 [6m, N^2-(4-fluorophenyl)-N^3-(2-(3-methyl-1H-pyrazol-5-yl)phenyl)pyrazine-2,3-dicarboxamide]
- CC50 ([1]; chlorocebus aethiops): > 120 µM
- Yellow fever SI [3]: 10
- EC50 ([3]; Yellow fever virus, Vero B): 7.8 µM
- Dengue SI [2]: >55
- fold increase of DENV inhibitory properties [2]: 12 fold
- EC50 ([2]; Dengue virus, Vero B): 2.2 µM
- CC50 at 168 h [4]: 77 µM

Structure (SMILES): Cc1ccc(NC(=O)c2nccnc2C(=O)Nc2ccccc2-c2cc(C)n[nH]2)cc1 [6n, N^2-(2-(3-methyl-1H-pyrazol-5-yl)phenyl)-N^3-(p-tolyl)pyrazine-2,3-di-carboxamide]
- CC50 at 168 h ([1]; chlorocebus aethiops): 24 µM
- Yellow fever SI [3]: >34
- EC50 ([3]; Yellow fever virus, Vero B): 0.4 µM
- Dengue SI [2]: 7
- fold reduced DENV inhibitory activity [2]: 7 fold
- EC50 ([2]; Dengue virus, Vero B): 3.4 µM
- CC50 [4]: > 13.6 µM

Structure (SMILES): Cc1ccc(NC(=O)c2ccccc2C(=O)Nc2ccc(F)cc2)c(-c2cc(C)n[nH]2)c1 [7a, N^1-(4-fluorophenyl)-N^2-(4-methyl-2-(3-methyl-1H-pyrazol-5-yl)phenyl)phthal-amide]
- CC50 ([1]; chlorocebus aethiops): > 117 µM
- Dengue SI [2]: >235
- fold more inhibitory against dengue virus [2]: 5 fold
- EC50 ([2]; Dengue virus, Vero B): 0.5 µM

Structure (SMILES): Cc1ccc(NC(=O)c2ccccc2C(=O)Nc2ccc(F)cc2)c(-c2cccs2)c1 [7b, N^1-(4-fluorophenyl)-N^2-(4-methyl-2-(thiophen-2-yl)phenyl)phthalamide]
- CC50 ([1]; chlorocebus aethiops): > 117 µM
- Yellow fever SI [3]: >1.6
- EC50 ([3]; Yellow fever virus, Vero B): 23.2 µM
- Dengue SI [2]: >29
- EC50 ([2]; Dengue virus, Vero B): 4 µM
- CC50 [4]: > 37 µM

Structure (SMILES): Cc1ccc(NC(=O)c2ccccc2C(=O)Nc2ccc(C)cc2-c2cc(C)n[nH]2)cc1 [7c, N^1-(4-methyl-2-(3-methyl-1H-pyrazol-5-yl)phenyl)-N^2-(p-tolyl)phthalamide]
- CC50 ([1]; chlorocebus aethiops): > 117 µM
- Dengue SI [2]: >4
- fold loss in DENV inhibitory activity [2]: 60 fold
- EC50 ([2]; Dengue virus, Vero B): 29 µM

Structure (SMILES): Cc1ccc(NC(=O)c2ccccc2C(=O)Nc2ccc(C)cc2-c2cccs2)cc1 [7d, N^1-(4-methyl-2-(thiophen-2-yl)phenyl)-N^2-(p-tolyl)phthalamide]
- CC50 ([1]; chlorocebus aethiops): > 117 µM
- Yellow fever SI [3]: >1.6
- EC50 ([3]; Yellow fever virus, Vero B): 23.2 µM
- Dengue SI [2]: >8
- EC50 ([2]; Dengue virus, Vero B): 14 µM
- CC50 [4]: > 37 µM

Structure (SMILES): Cc1ccc(NC(=O)c2ccccc2C(=O)Nc2ccc(C)cc2-c2ccc(C)s2)cc1 [7e, N^1-(4-methyl-2-(5-methylthiophen-2-yl)phenyl)-N^2-(p-tolyl)phthalamide]
- CC50 ([1]; chlorocebus aethiops): > 114 µM
- Yellow fever SI [3]: 3.4
- EC50 ([3]; Yellow fever virus, Vero B): 6.8 µM
- Dengue SI [2]: >57
- EC50 ([2]; Dengue virus, Vero B): 2 µM
- CC50 at 168 h [4]: 23 µM

Structure (SMILES): Cc1ccc(NC(=O)c2nc[nH]c2C(=O)Nc2ccc(F)cc2)c(-c2cc(C)n[nH]2)c1 [compound 1]
- EC50 ([3]; Yellow fever virus, Vero B): 3.5 µM
- EC50 ([2]; Dengue virus, Vero B): 2.5 µM
